Read-outs that look alike come from different tables or passages of the source.
Legend:
[1] = system: pulmonary rat fibroblasts; assay: Fibroblast cell cultures: vitamin K or magnesium sulfate on top of copper sulfate (6c); assay type: cell-based; conditions: added to copper sulfate (+8*initial copper concentration in medium); for accumulation of collagen: compared to copper sulfate monotherapy
Description: (§1) Cell cultures with pulmonary rat fibroblasts. • 7.
(§2) We first measured copper levels in the fibroblast medium.

[2] = system: porcine pancreatic elastase (PPE)-induced emphysema; assay: Porcine pancreatic elastase (PPE)-induced emphysema model in mice
Protocol: Methods: In order to assess the effects of copper sulfate plus heparin on both elastin and collagen metabolism in vivo, we used a porcine pancreatic elastase (PPE)-induced emphysema model. Study was conducted in male BALB/c mice aged 7 weeks with a starting body weight of about 25 g. During the study period, all mice were housed in a conventional animal house with a 12/12 h light-dark cycle in filter-top cages and supplied with pelleted food and water ad libitum. 1.5 U porcine pancreatic elastase in 25 μL saline was intratracheally administered on day 1 under light anesthesia. […] On day 35, mice were anesthetized intraperitoneally with a mixture of xylazine (8.5 mg/kg) and ketamine (130 mg/kg), they were tracheotomized and placed in a whole-body plethysmograph to assess lung function. After lung function measurements, mice were euthanized by an intracardiac administration of pentobarbital. The left lung will be snap-frozen in liquid nitrogen and stored at −80° C. for subsequent gene expression studies where ELN, LOX and LOXL1 were measured. The right lung was fixed in 6% paraformaldehyde at a constant hydrostatic pressure of 25 cm fluid column for 24 h. After dehydration and embedding in paraffin, sagittal sections will be stained with various stains and used for histological analyses to measure airspace enlargement (mean linear intercept); and subsequently this lung was used for measuring concentrations of both DES and insoluble collagen. Brains were taken out to measure copper concentrations.

[3] = system: pulmonary rat fibroblasts
Description: as §1, §2

[4] = system: copper-deficient chicks; conditions: copper repletion in copper-deficient chicks, ref. [7]; cited from earlier work
[5] = system: rats' lungs; conditions: copper repletion after copper-deficient diet, ref. [15]; cited from earlier work
[6] = intratracheal on day 1, 8, 15, 22 and 29, day 35, compared to placebo
[7] = fibroblasts grown 21 days, copper sulfate added +0.5 to +32*initial copper concentration in medium

Compound | DES accumulation [1] | ELN gene expression [1] | LOX gene expression [1] | LOXL1 gene expression [1] | tropo-elastin levels [1] | accumulation of collagen [1] | insoluble elastin levels [1] | also measured
O=S(=O)([O-])[O-].[Mg+2] [magnesium sulfate] | additional stimulating effect | no stimulating effect | no stimulating effect | no stimulating effect | no stimulating effect | no additional stimulating effect |  | 
O=S(=O)([O-])[O-].[Cu+2] [copper sulfate] |  |  |  |  |  |  |  | accumulation of collagen in the lungs ([2]; conclusion of the mouse study): induced accumulation and maturation of collagen fibers; elastin repair process / repair of damaged elastin fibers ([2]; conclusion of the mouse study): very effectively stimulated; DES levels in lung tissue [2, 6]: higher; Mean linear intercept [2, 6]: lower; hydroxyproline levels in lung [2, 6]: elevated; hyperinflation in the lung function tests (total lung capacity) ([2]; intratracheal on day 1, 8, 15, 22 and 29, measured day 35, compared to placebo): More hyperinflation was present in the lung function tests of mice from the placebo group; copper concentration at which the dose response curve with regard to DES levels topped off ([3]; added on top of the baseline copper (+)): ~8 *initial copper concentration in the fibroblast medium; DES levels [3, 7]: increased; ELN gene expression [3, 7]: did not have any effect; LOX activity [3, 7]: increased; LOX gene expression [3, 7]: increased; LOXL1 gene expression [3, 7]: increased
CC(C)=CCC/C(C)=C/CC/C(C)=C/CC/C(C)=C/CC1=C(C)C(=O)c2ccccc2C1=O [vitamin K2] | additional stimulating effect | no stimulating effect | no stimulating effect | no stimulating effect | no stimulating effect | no additional stimulating effect | additional stimulating effect | 
heparin |  |  |  |  |  |  |  | effect on systemic coagulation ([2]; mouse, in vivo): did not have any effect
CC1=C(C/C=C(\C)CCC[C@H](C)CCC[C@H](C)CCCC(C)C)C(=O)c2ccccc2C1=O [vitamin K1] | additional stimulating effect | no stimulating effect | no stimulating effect | no stimulating effect | no stimulating effect | no additional stimulating effect | additional stimulating effect | 
[Cu] [copper] |  |  |  |  |  |  |  | effect on cerebral copper concentrations ([2]; intratracheally administered, mice): no effect; deposition of protease-resistant elastin fibers [4]: near normal values; ultrastructure of pulmonary elastin [5]: restored the ultrastructure of pulmonary elastin to near normal
